Test results as given in ChEMBL document CHEMBL1649180, “Early postpartum pharmacokinetics of lopinavir initiated intrapartum in Thai women” (Antimicrob Agents Chemother, 2009).

Experiments:
[1] = system: Serum; experiment: Drug level in HIV-infected Thai pregnant women serum before intrapartum initiation of 400 mg, po bid in combination with 100 mg, po bid ritonavir; type: ADME, organism-based; settings: human, in vivo
[2] = Drug level in HIV-infected Thai pregnant women serum at 400 mg, po bid initiated intrapartum administered for 30 days in combination with 100 mg, po bid ritonavir measured 2 hrs post last dose; type: ADME, organism-based; settings: female, human, read-out: Drug uptake
[3] = system: Serum; experiment: Ratio of drug level before intrapartum initiation to 30 days pre-last dose of HIV-infected Thai pregnant women serum at 400 mg, po bid in combination with 100 mg, po bid ritonavir; type: ADME, organism-based; settings: human, in vivo, 720 h
[4] = Drug level in HIV-infected Thai pregnant women serum at 400 mg, po bid initiated intrapartum in combination with 100 mg, po bid ritonavir measured 4 hrs post last dose; type: ADME, organism-based; settings: female, human, read-out: Drug uptake
[5] = system: Serum; experiment: Ratio of drug level in 4 hrs to 30 days post last dose of HIV-infected Thai pregnant women serum at 400 mg, po bid initiated intrapartum in combination with 100 mg, po bid ritonavir; type: ADME, organism-based; settings: human, in vivo
[6] = system: Serum; experiment: Ratio of drug level in 2 hrs to 30 days post last dose of HIV-infected Thai pregnant women serum at 400 mg, po bid initiated intrapartum in combination with 100 mg, po bid ritonavir; type: ADME, organism-based; settings: human, in vivo
[7] = system: Homo sapiens; experiment: Toxicity in HIV-infected Thai pregnant women assessed as adverse effect at 400 mg, po bid initiated intrapartum administered for 30 days in combination with 100 mg, po bid ritonavir; type: organism-based; settings: in vivo, 720 h
[8] = Drug level in HIV-infected Thai pregnant women serum at 400 mg, po bid initiated intrapartum administered for 30 days in combination with 100 mg, po bid ritonavir measured 4 hrs post last dose; type: ADME, organism-based; settings: female, human, read-out: Drug uptake
[9] = Drug level in HIV-infected Thai pregnant women serum at 400 mg, po bid initiated intrapartum in combination with 100 mg, po bid ritonavir measured 12 hrs post last dose; type: ADME, organism-based; settings: female, human, read-out: Drug uptake
[10] = Tmax in HIV-infected Thai pregnant women at 400 mg, po bid initiated intrapartum in combination with 100 mg, po bid ritonavir measured within 72 hrs postpartum; type: ADME, organism-based; settings: female, human, in vivo
[11] = Drug level in HIV-infected Thai pregnant women serum at 400 mg, po bid initiated intrapartum in combination with 100 mg, po bid ritonavir measured 2 hrs post last dose; type: ADME, organism-based; settings: female, human, read-out: Drug uptake
[12] = AUC (0 to 12 hrs) in HIV-infected Thai pregnant women at 400 mg, po bid initiated intrapartum in combination with 100 mg, po bid ritonavir measured within 72 hrs postpartum; type: ADME, organism-based; design: time < 12 hr, dose 400 mg, route oral; settings: female, human, plasma
[13] = Drug level in HIV-infected Thai pregnant women serum at 400 mg, po bid initiated intrapartum administered for 30 days in combination with 100 mg, po bid ritonavir measured before administering last dose; type: ADME, organism-based; settings: female, human, read-out: Drug uptake
[14] = Cmax in HIV-infected Thai pregnant women at 400 mg, po bid initiated intrapartum in combination with 100 mg, po bid ritonavir measured within 72 hrs postpartum; type: ADME, organism-based; design: dose 400 mg, route oral; settings: female, human, in vivo
[15] = Drug level in HIV-infected Thai pregnant women serum at 100 mg, po bid initiated intrapartum in combination with 400 mg, po bid Lopinavir measured 4 hrs post last dose; type: ADME, organism-based; settings: female, human, read-out: Drug uptake
[16] = system: Serum; experiment: Ratio of drug level before intrapartum initiation to 30 days pre-last dose of HIV-infected Thai pregnant women serum at 100 mg, po bid in combination with 400 mg, po bid Lopinavir; type: ADME, organism-based; settings: human, in vivo, 720 h
[17] = system: Serum; experiment: Ratio of drug level in 4 hrs to 30 days post last dose of HIV-infected Thai pregnant women serum at 100 mg, po bid initiated intrapartum in combination with 400 mg, po bid Lopinavir; type: ADME, organism-based; settings: human, in vivo
[18] = Tmax in HIV-infected Thai pregnant women at 100 mg, po bid initiated intrapartum in combination with 400 mg, po bid Lopinavir measured within 72 hrs postpartum; type: ADME, organism-based; settings: female, human, in vivo
[19] = Drug level in HIV-infected Thai pregnant women serum at 100 mg, po bid initiated intrapartum in combination with 400 mg, po bid Lopinavir measured 2 hrs post last dose; type: ADME, organism-based; settings: female, human, read-out: Drug uptake
[20] = system: Serum; experiment: Drug level in HIV-infected Thai pregnant women serum before intrapartum initiation of 100 mg, po bid in combination with 400 mg, po bid Lopinavir; type: ADME, organism-based; settings: human, in vivo
[21] = Drug level in HIV-infected Thai pregnant women serum at 100 mg, po bid initiated intrapartum administered for 30 days in combination with 400 mg, po bid Lopinavir measured 4 hrs post last dose; type: ADME, organism-based; settings: female, human, read-out: Drug uptake
[22] = Drug level in HIV-infected Thai pregnant women serum at 100 mg, po bid initiated intrapartum administered for 30 days in combination with 400 mg, po bid Lopinavir measured 2 hrs post last dose; type: ADME, organism-based; settings: female, human, read-out: Drug uptake
[23] = Drug level in HIV-infected Thai pregnant women serum at 100 mg, po bid initiated intrapartum administered for 30 days in combination with 400 mg, po bid Lopinavir measured before administering last dose; type: ADME, organism-based; settings: female, human, read-out: Drug uptake
[24] = Cmax in HIV-infected Thai pregnant women at 100 mg, po bid initiated intrapartum in combination with 400 mg, po bid Lopinavir measured within 72 hrs postpartum; type: ADME, organism-based; design: dose 100 mg, route oral; settings: female, human, in vivo
[25] = Drug level in HIV-infected Thai pregnant women serum at 100 mg, po bid initiated intrapartum in combination with 400 mg, po bid Lopinavir measured 12 hrs post last dose; type: ADME, organism-based; settings: female, human, read-out: Drug uptake
[26] = system: Serum; experiment: Ratio of drug level in 2 hrs to 30 days post last dose of HIV-infected Thai pregnant women serum at 100 mg, po bid initiated intrapartum in combination with 400 mg, po bid Lopinavir; type: ADME, organism-based; settings: human, in vivo
[27] = AUC (0 to 12 hrs) in HIV-infected Thai pregnant women at 100 mg, po bid initiated intrapartum in combination with 400 mg, po bid Lopinavir measured within 72 hrs postpartum; type: ADME, organism-based; design: time < 12 hr, dose 100 mg, route oral; settings: female, human, plasma

Q: With `Cc1cccc(C)c1OCC(=O)N[C@@H](Cc1ccccc1)[C@@H](O)C[C@H](Cc1ccccc1)NC(=O)[C@H](C(C)C)N1CCCNC1=O` [LOPINAVIR] as the molecule, how does the Drug uptake [1] read?
A: 6.08 µg/mL

Q: And the concentration at 2 h [2]?
A: 11700 ng/mL

Q: And the Drug uptake [3]?
A: 0.66

Q: And the concentration at 4 h [4]?
A: 10800 ng/mL

Q: And the Drug uptake [5]?
A: 0.81

Q: What about the Drug uptake [6] of the same molecule?
A: 0.85

Q: What about the Activity [7] of the same molecule?
A: Non-toxic

Q: What about the concentration at 4 h [8] of the same molecule?
A: 13000 ng/mL

Q: What about the concentration at 12 h [9] of the same molecule?
A: 5180 ng/mL

Q: And the Tmax [10]?
A: 3.9 h

Q: What about the concentration at 2 h [11] of the same molecule?
A: 10500 ng/mL

Q: And the AUC at 12 h [12]?
A: 99700 ng·h/mL

Q: And the concentration at 720 h [13]?
A: 9170 ng/mL

Q: And the Cmax [14]?
A: 11200 ng/mL

Q: With `CC(C)c1nc(CN(C)C(=O)N[C@H](C(=O)N[C@@H](Cc2ccccc2)C[C@H](O)[C@H](Cc2ccccc2)NC(=O)OCc2cncs2)C(C)C)cs1` [RITONAVIR] as the molecule, how does the concentration at 4 h [15] read?
A: 580 ng/mL

Q: And the Drug uptake [16]?
A: 0.54

Q: What about the Drug uptake [17] of the same molecule?
A: 0.68

Q: What about the Tmax [18] of the same molecule?
A: 3.9 h

Q: What about the concentration at 2 h [19] of the same molecule?
A: 450 ng/mL

Q: What about the Drug uptake [20] of the same molecule?
A: 0.16 µg/mL

Q: And the concentration at 4 h [21]?
A: 810 ng/mL

Q: And the concentration at 2 h [22]?
A: 610 ng/mL

Q: What about the concentration at 720 h [23] of the same molecule?
A: 290 ng/mL

Q: What about the Cmax [24] of the same molecule?
A: 600 ng/mL

Q: And the concentration at 12 h [25]?
A: 100 ng/mL

Q: And the Drug uptake [26]?
A: 0.76

Q: And the AUC at 12 h [27]?
A: 4270 ng·h/mL
